Data on 18 molecules can be found in patent US8450313B2, “2,3-diaryl- or heteroaryl-substituted 1,1,1-trifluoro-2-hydroxypropyl compounds” (Hoffmann-La Roche Inc., priority 2009, dated 2013).

In the experiment the target is T1, full length human recombinant glucocorticoid receptor (Homo sapiens, UniProt P04150).
T1 construct: It contains some partially purified full length human recombinant glucocorticoid receptor; purchased Panvera/Invitrogen PV4302
T1 sequence (P04150 1-777): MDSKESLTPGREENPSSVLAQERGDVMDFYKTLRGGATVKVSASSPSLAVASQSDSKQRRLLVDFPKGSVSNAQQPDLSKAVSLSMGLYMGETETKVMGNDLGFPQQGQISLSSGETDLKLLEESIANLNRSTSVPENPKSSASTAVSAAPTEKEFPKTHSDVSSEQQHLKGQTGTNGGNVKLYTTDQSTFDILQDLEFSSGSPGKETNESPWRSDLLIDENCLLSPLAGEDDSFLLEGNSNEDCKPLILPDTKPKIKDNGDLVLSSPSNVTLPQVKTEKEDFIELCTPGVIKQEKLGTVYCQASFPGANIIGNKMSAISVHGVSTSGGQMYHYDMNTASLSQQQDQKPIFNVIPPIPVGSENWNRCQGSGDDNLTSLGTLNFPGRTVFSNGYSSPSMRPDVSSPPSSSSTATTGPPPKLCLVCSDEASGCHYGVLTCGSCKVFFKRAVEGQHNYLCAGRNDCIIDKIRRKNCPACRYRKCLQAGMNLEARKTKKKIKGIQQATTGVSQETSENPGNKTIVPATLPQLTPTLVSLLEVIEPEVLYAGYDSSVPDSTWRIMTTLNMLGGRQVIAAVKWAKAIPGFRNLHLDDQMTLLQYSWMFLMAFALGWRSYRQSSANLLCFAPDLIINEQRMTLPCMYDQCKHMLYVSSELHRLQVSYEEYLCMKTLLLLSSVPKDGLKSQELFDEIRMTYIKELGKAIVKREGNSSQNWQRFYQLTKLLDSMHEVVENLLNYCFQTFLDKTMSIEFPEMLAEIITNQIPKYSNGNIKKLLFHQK
Put plainly: Glucocorticoid Receptor Binding Assay (Glucocorticoid Receptor Competitor Assay far red kit, fluorescence polarization). The note with it: competition with fluorescent GR ligand Fluormone GS Far Red, 3 hours at 22° C., pH 7.4; Ki calculated from IC50 by Cheng-Prusoff. On the procedure:
Glucocorticoid Receptor Binding Assay
The ability of the substances to bind to the glucocorticoid receptor was determined with the help of a commercial Glucocorticoid Receptor Competitor Assay far red kit provided by Panvera/Invitrogen (PV4302). This kit is used as provided by the supplier. It contains some partially purified full length human recombinant glucocorticoid receptor, a coactivator related GR stabilizing peptide, a tight-binding fluorescent GR ligand Fluormone™ GS Far Red as labeled tracer and a screening buffer. All reagents are prepared and the assay is run according to the recommendations of the kit manufacturer.
Briefly, the GR stabilizing peptide and the human recombinant glucocorticoid receptor are both diluted with the screening buffer (pH 7.4) and are gently mixed (no vortexing) just before the assay and kept on ice until use. The fluorescent-labeled ligand is also diluted with the screening buffer just before the assay and kept on ice until use. The substances to test are pre-diluted in pure DMSO then some water is added to get an intermediate 4.2% DMSO stock solution. Ten microliter of the intermediate stock solution is gently mixed with 5 μA of diluted fluorescent-labeled ligand and 5 μl of diluted human recombinant glucocorticoid receptor in a 384-well plate (low volume, ultraclear, glass plate from Greiner ref 788896). The plate is centrifuged, sealed and incubated for 3 hours at 22° C. in the dark. The polarized fluorescence is measured with a Zeiss-HTS reader or any equivalent equipment (610-660 nm).
All compounds were tested to determine IC50 in a serial dilution experiment. The concentration at which 50% inhibition of the fluorescent GR ligand Fluormone™ GS Far Red is obtained (the IC50) is determined after fitting with a sigmoidal dose-response model of a plot of the logarithm of the concentration versus percent inhibition measured for the different concentrations. Ki's were calculated from IC50 based on Cheng-Prusoff equation (Cheng, Y, Prusoff, W H (1973) Biochem Pharmacol 22, 3099-3108): Ki=IC50/[1+D/Kd] wherein D is the concentration of the fluorescent ligand and Kd is the binding constant for the fluorescent ligand binding to the receptor under the conditions used in the competition experiment.

For orientation: Ki means the dissociation constant of the complex between target and ligand, obtained from inhibition or displacement.

As to `CCN1C(=O)COc2ccc([C@](O)([C@H](C)c3ccc(-c4ccc(Cl)c(C(=O)O)c4)cc3Cl)C(F)(F)F)cc21` (relative stereo) [Example 66, 4,3′-Dichloro-4′-[2-(4-ethyl-3-oxo-3,4-dihydro-2H-benzo[1,4]oxazin-6-yl)-3,3,3-trifluoro-2-hydroxy-1-methyl-propyl]-biphenyl-3-carboxylic acid], the inhibition constant (Ki) was 191 nM. Under `C[C@H](c1cc(O)ccc1Cl)[C@@](O)(c1ccc2oc(=O)n(C)c2c1)C(F)(F)F` (stereo in doubt) [Example 197, 5-[2-(2-Chloro-5-hydroxy-phenyl)-1-hydroxy-1-trifluoromethyl-propyl]-3-methyl-3H-benzooxazol-2-one] stands 5.8 nM; under `CC(c1ccc(O)cc1Cl)C(O)(c1ccc2c(c1)n(C)c(=O)n2C)C(F)(F)F` (stereo not drawn) [Example 85, 5-[2-(2-Chloro-4-hydroxy-phenyl)-1-hydroxy-1-trifluoromethyl-propyl]-1,3-dimethyl-1,3-dihydro-benzoimidazol-2-one], 0.8 nM; under `C[C@H](c1ccc(Oc2ccccc2C(=O)O)cc1Cl)[C@@](O)(c1ccc2c(c1)n(C)c(=O)n2C)C(F)(F)F` (relative stereo) [Example 96, 2-{3-Chloro-4-[2-(1,3-dimethyl-2-oxo-2,3-dihydro-1H-benzoimidazol-5-yl)-3,3,3-trifluoro-2-hydroxy-1-methyl-propyl]-phenoxy}-benzoic acid], 2.4 nM.

`COC(=O)c1ccc(-c2ccc([C@H](C)[C@](O)(c3ccc4c(c3)N(C)C(=O)CO4)C(F)(F)F)c(Cl)c2)c(F)c1` (relative stereo) [Example 33, 3′-Chloro-2-fluoro-4′-[3,3,3-trifluoro-2-hydroxy-1-methyl-2-(4-methyl-3-oxo-3,4-dihydro-2H-benzo[1,4]oxazin-6-yl)-propyl]-biphenyl-4-carboxylic acid methyl ester]: the Ki is 17.3 nM. Under `CC(c1ccc(Oc2ccc(C(=O)O)c(Cl)c2)cc1Cl)C(O)(c1ccc(C#N)cc1)C(F)(F)F` (stereo not drawn) [Example 156, 2-Chloro-4-{3-chloro-4-[2-(4-cyano-phenyl)-3,3,3-trifluoro-2-hydroxy-1-methyl-propyl]-phenoxy}-benzoic acid] stands 192 nM; under `C[C@H](c1ccc(Oc2ccc(C(=O)O)cn2)cc1Cl)[C@@](O)(c1ccc(C#N)cc1)C(F)(F)F` (stereo in doubt) [Example 157, 6-{3-Chloro-4-[2-(4-cyano-phenyl)-3,3,3-trifluoro-2-hydroxy-1-methyl-propyl]-phenoxy}-nicotinic acid], 19.8 nM. Then `C[C@@H](c1ccc(Oc2ccc(C(=O)O)c(C(F)(F)F)n2)cc1Cl)[C@](O)(c1ccc2c(c1)n(C)c(=O)n2C)C(F)(F)F` (stereo in doubt) [Example 115, 6-{3-Chloro-4-[2-(1,3-dimethyl-2-oxo-2,3-dihydro-1H-benzoimidazol-5-yl)-3,3,3-trifluoro-2-hydroxy-1-methyl-propyl]-phenoxy}-2-trifluoromethyl-nicotinic acid], with 1.1 nM. Under `COC(=O)c1ccc(-c2ccc([C@H](C)[C@](O)(c3cc(F)c4c(c3)N(C)C(=O)CO4)C(F)(F)F)c(Cl)c2)cc1F` (relative stereo) [Example 45, 3′-Chloro-3-fluoro-4′-[3,3,3-trifluoro-2-(8-fluoro-4-methyl-3-oxo-3,4-dihydro-2H-benzo[1,4]oxazin-6-yl)-2-hydroxy-1-methyl-propyl]-biphenyl-4-carboxylic acid methyl ester] stands 2.1 nM; under `COC(=O)c1ccc(-c2ccc([C@@H](C)[C@@](O)(c3cnc4c(c3)N(C)C(=O)CO4)C(F)(F)F)c(Cl)c2)cc1F` (stereo in doubt) [Example 51, 3′-Chloro-3-fluoro-4′-[3,3,3-trifluoro-2-hydroxy-1-methyl-2-(1-methyl-2-oxo-2,3-dihydro-1H-pyrido[2,3-b][1,4]oxazin-7-yl)-propyl]-biphenyl-4-carboxylic acid methyl ester], 20.8 nM. With `COC(=O)c1cnc(Oc2ccc([C@H](C)[C@](O)(c3cc(C)c(C#N)c(C)c3)C(F)(F)F)c(Cl)c2)cc1C(F)(F)F` (stereo in doubt) [Example 145, 6-{3-Chloro-4-[2-(4-cyano-3,5-dimethyl-phenyl)-3,3,3-trifluoro-2-hydroxy-1-methyl-propyl]phenoxy}-4-trifluoromethyl-nicotinic acid methyl ester], the Ki was 3.1 nM. Under `COC(=O)c1ccc(Oc2ccc([C@@H](C)[C@@](O)(c3ccc4oc(=O)n(C)c4c3)C(F)(F)F)c(Cl)c2)nn1` (relative stereo) [Example 199, 6-{3-Chloro-4-[3,3,3-trifluoro-2-hydroxy-1-methyl-2-(3-methyl-2-oxo-2,3-dihydro-benzooxazol-5-yl)-propyl]-phenoxy}-pyridazine-3-carboxylic acid methyl ester] stands 2.1 nM. Under `C[C@H](c1ccc(Oc2ncc(C(=O)O)cc2Cl)cc1Cl)[C@@](O)(c1ccc2c(c1)N(C)C(=O)CO2)C(F)(F)F` (racemic) [Example 213, 5-Chloro-6-{3-chloro-4-[3,3,3-trifluoro-2-hydroxy-1-methyl-2-(4-methyl-3-oxo-3,4-dihydro-2H-benzo[1,4]oxazin-6-yl)-propyl]-phenoxy}-nicotinic acid] stands 1.7 nM; under `C[C@@H](c1cc(Oc2ccc(C(=O)O)cc2F)ccc1Cl)[C@](O)(c1ccc2c(c1)N(C)C(=O)CO2)C(F)(F)F` (relative stereo) [Example 16, 4-{4-Chloro-3-[3,3,3-trifluoro-2-hydroxy-1-methyl-2-(4-methyl-3-oxo-3,4-dihydro-2H-benzo[1,4]oxazin-6-yl)-propyl]-phenoxy}-3-fluoro-benzoic acid], 2.5 nM.

For the molecule `C[C@H](c1ccc(Oc2nc(C(F)(F)F)ccc2C(=O)O)cc1Cl)[C@@](O)(c1ccc2c(c1)n(C)c(=O)n2C)C(F)(F)F` (stereo in doubt) [Example 111, 2-{3-Chloro-4-[2-(1,3-dimethyl-2-oxo-2,3-dihydro-1H-benzoimidazol-5-yl)-3,3,3-trifluoro-2-hydroxy-1-methyl-propyl]-phenoxy}-6-trifluoromethyl-nicotinic acid], the Ki is 36 nM. Under `C[C@@H](c1ccc(Oc2ccc(CC(=O)O)cc2)cc1Cl)[C@](O)(c1ccc2c(c1)N(C)C(=O)CO2)C(F)(F)F` (relative stereo) [Example 44, (4-{3-Chloro-4-[3,3,3-trifluoro-2-hydroxy-1-methyl-2-(4-methyl-3-oxo-3,4-dihydro-2H-benzo[1,4]oxazin-6-yl)-propyl]-phenoxy}-phenyl)-acetic acid] stands 3.2 nM; under `C[C@@H](c1ccc(-c2cccc(C(=O)O)c2)cc1Cl)[C@](O)(c1ccc2c(c1)N(C)C(=O)CO2)C(F)(F)F` (stereo in doubt) [Example 23, 3′-Chloro-4′-[3,3,3-trifluoro-2-hydroxy-1-methyl-2-(4-methyl-3-oxo-3,4-dihydro-2H-benzo[1,4]oxazin-6-yl)-propyl]-biphenyl-3-carboxylic acid], 1.3 nM; under `C[C@H](c1ccc(Oc2cccc(C(=O)O)c2)cc1Cl)[C@@](O)(c1ccc2c(c1)N(C)C(=O)CO2)C(F)(F)F` (racemic) [Example 61, 3-{3-Chloro-4-[3,3,3-trifluoro-2-hydroxy-1-methyl-2-(4-methyl-3-oxo-3,4-dihydro-2H-benzo[1,4]oxazin-6-yl)-propyl]-phenoxy}-benzoic acid], 1 nM.
